Assay results reported in patent US20100063020A1, “ORAL PHARMACEUTICAL FORMULATIONS AND METHODS FOR PRODUCING AND USING SAME” (priority 2004, published 2010).
Converted amounts (≈) assume the structure as drawn. “And” between values parts separate entries of the source, which are not always exact repeats. Identical values can stand only once. Like-named read-outs stand apart in the source and are kept apart here.

Tests used:
[1] = Mouse serum pharmacokinetics of low melt 17-AAG in PEG-Tween; type: in vivo; settings: Balb/C mice, PO 40 mg/kg
Experimental: Six to 8 week old Balb/C mice were obtained from Harlan Sprague Dawley, (Indianapolis, Ind.). The mice were maintained in sterilized filter topped cages or ventilated caging in a room with a 12-h light/12-h dark photoperiod at temperature of 21-23° C. and a relative humidity of 50±5%. Irradiated pelleted food (Harlan Teklad #7912) and autoclaved deionized water were provided ad libitum. Experiments were carried out under institutional guidelines for the proper and humane use of animals in research established by the Institute for Laboratory Animal Research (ILAR).
Drug solutions were prepared and the concentrations were adjusted so that mice received a dose of 2-15 ml/kg administered intravenously (I.V.) as a bolus, orally, or intra-peritoneally (I.P.). In I.V. studies blood was sampled at 1, 5, 15, 30, 90 and 120 min. In oral and I.P. studies blood was sampled at 5, 15, 30, 90, 180 minutes and in some cases up to 240 minutes. Blood was collected in capillary tubes, transferred to microcentrifuge tubes, allowed to clot and centrifuged at 14,000 g for 10 minutes at 4° C. to obtain serum.

[2] = Absolute oral bioavailability of 17-AAG lipid complex formulation in female rats; type: in vivo, Sprague-Dawley rats; settings: rat; for Apparent Absolute Bioavailability: oral 50 mg/kg vs intravenous 10 mg/kg
Experimental: Female Sprague-Dawley rats were administered a phospholipid complex formulation of the low melt form of 17-AAG by oral gavage or as intravenous infusion (tail vein). Blood samples were collected prior to dosing and up to 6 hrs post dosing.
% F=[(Oral AUC(0-6h)×I.V. Dose)/(I.V. AUC(0-6h)×Oral Dose)]*100.
Blood samples (n=11) were collected via the jugular vein catheter prior to dosing and up to 6 hrs post dosing. The blood was allowed to clot at room temperature for approximately 20 minutes and then placed on ice until centrifugation at 10,000×G for 10 minutes. Serum was collected into polypropylene tubes and frozen at −80° C. until analysis.

Caco-2 cell monolayer = assay: in vitro; type: in vitro ADME
Source text: The permeability of the pharmaceutical active ingredient across the gastrointestinal membrane may be estimated from it permeability across a Caco-2 cell monolayer using standard techniques (e.g. Chong S et al. Pharmaceutical Research 1997 14(12):1835-1837). The reference is hereby expressly incorporated by reference.
Propranolol was included in each assay as a high permeability control compound.

[3] = adult patients, cited from earlier work; for Cmax: read-out: Plasma Cmax
[4] = Mouse serum pharmacokinetics of low melt 17-AAG in phospholipids; type: in vivo; settings: Balb/C mice; for 17-AG AUCobs / 17-AG Cmax: metabolite 17-AG
Experimental: Blood was collected at predetermined intervals and the serum was isolated.
Six to 8 week old Balb/C mice were obtained from Harlan Sprague Dawley (Indianapolis, Ind.). The mice were maintained in sterilized filter topped cages or ventilated caging in a room with a 12 h light/12 h dark photoperiod at temperature of 21-23° C. and a relative humidity of 50±5%. Irradiated pelleted food (Harlan Teklad #7912) and autoclaved deionized water were provided ad libitum. Experiments were carried out under institutional guidelines for the proper and humane use of animals in research established by the Institute for Laboratory Animal Research (ILAR).
Drug solutions were prepared and the concentrations were adjusted so that mice received a dose of 2-15 ml/kg administered intravenously (I.V.) as a bolus, orally, or intra-peritoneally (I.P.). […] In I.V. studies blood was sampled at 1, 5, 15, 30, 90 and 120 min. In oral and I.P. studies blood was sampled at 5, 15, 30, 90, 180 minutes and in some cases up to 240 minutes. Blood was collected in capillary tubes, transferred to microcentrifuge tubes, allowed to clot and centrifuged at 14,000 g for 10 minutes at 4° C. to obtain serum.

[5] = Solubility assay in simulated intestinal fluid (SIF); type: physicochemical; settings: low melt form; simulated intestinal fluid per USP w/o pancreatin, 24 hours at 37° C.
Experimental: The solubility of an active ingredient may be assayed by its dissolution in a simulated intestinal fluid (SIF) (per USP w/o pancreatin). Conforma Therapeutics has developed a database of SIF solubility data using this assay for a structurally diverse set of compounds that have also been administered orally to mice.
The mixture was incubated with continuous shaking for a predetermined time and temperature, e.g., for 24 hours at 37° C. […] The solubility of the active ingredient is calculated as the difference between the initial and final concentration of the active ingredient in the supernatant normalized to the total volume of SIF used.
The tube was then sonicated for 5 minutes then incubated for 24 hours at 37° C. with shaking. […] Conforma Therapeutics has developed a database of SIF solubility data using this assay for a structurally diverse set of compounds that have also been administered orally to mice.

[6] = aqueous reconstituted lyophilized preparation containing sucrose; cited from earlier work
[7] = intravenous 10 mg/kg, individual animal, 10 mg/kg
[8] = intravenous 10 mg/kg, metabolite 17-AG, individual animal, 10 mg/kg
[9] = intravenous 10 mg/kg, metabolite 17-AG, mean n=3
[10] = oral 50 mg/kg, individual animal, 50 mg/kg
[11] = oral 50 mg/kg, metabolite 17-AG, individual animal, 50 mg/kg
[12] = PO 40 mg/kg, lipid complex, low melt form

C=CCNC1=C2C[C@@H](C)C[C@H](OC)[C@H](O)[C@@H](C)/C=C(\C)[C@H](OC(N)=O)[C@@H](OC)/C=C\C=C(/C)C(=O)NC(=CC1=O)C2=O [Compound 17-AAG, 17-allylamino-17-demethoxygeldanamycin]
17-AAG AUCobs ([1]; low melt form): 433 µg·min/mL | 17-AAG Cmax ([1]; low melt form): 5000 ng/mL | 17-AG AUCobs ([1]; metabolite 17-AG): 163 µg·min/mL | 17-AG Cmax ([1]; metabolite 17-AG): 2400 ng/mL | % F ([1]; relative to IV 40 mg/kg): 25% | 17-AAG AUC(0-6) [2, 7]: 172 µg·min/mL and 161 µg·min/mL and 135 µg·min/mL | 17-AAG Cmax [2, 7]: 8700 ng/mL and 8000 ng/mL and 7000 ng/mL | 17-AAG AUC(0-6) ([2]; intravenous 10 mg/kg, mean n=3): 156 µg·min/mL | 17-AAG Cmax ([2]; intravenous 10 mg/kg, mean n=3): 7900 ng/mL | 17-AG AUC(0-6) [2, 8]: 17 µg·min/mL and 25 µg·min/mL and 37 µg·min/mL | 17-AG Cmax [2, 8]: 300 ng/mL and 200 ng/mL | 17-AG AUC(0-6) [2, 9]: 26 µg·min/mL | 17-AG Cmax [2, 9]: 200 ng/mL | Apparent Absolute Bioavailability ([2]; individual animal): 160% and 129% and 39% | Apparent Absolute Bioavailability ([2]; mean n=3): 109±63% | 17-AAG mean serum concentration six hours post oral dosing ([2]; oral 50 mg/kg, 6 h): 1.6 ± 0.8 µg/mL | 17-AG mean serum concentration six hours post oral dosing ([2]; oral 50 mg/kg, 6 h, metabolite 17-AG): 0.6 ± 0.1 µg/mL | 17-AAG AUC(0-6) [2, 10]: 1248 µg·min/mL and 1003 µg·min/mL and 305 µg·min/mL | 17-AAG Cmax [2, 10]: 5700 ng/mL and 4700 ng/mL and 1200 ng/mL | 17-AAG AUC(0-6) ([2]; oral 50 mg/kg, mean n=3): 852 µg·min/mL | 17-AAG Cmax ([2]; oral 50 mg/kg, mean n=3): 3900 ± 2400 ng/mL | 17-AG AUC(0-6) [2, 11]: 252 µg·min/mL and 238 µg·min/mL and 156 µg·min/mL | 17-AG Cmax [2, 11]: 1200 ng/mL and 900 ng/mL | 17-AG AUC(0-6) ([2]; oral 50 mg/kg, metabolite 17-AG, mean n=3): 215 µg·min/mL | 17-AG Cmax ([2]; oral 50 mg/kg, metabolite 17-AG, mean n=3, 50 mg/kg): 1000 ng/mL | permeability across the Caco-2 monolayer (Caco-2 cell monolayer): 19 ×10⁻⁶ cm/s | maximum tolerated dose (MTD) ([3]; daily 1-hour infusion for 5 days every three weeks): 40 mg/m^2 | clearance ([3]; mean±SD): 41.0 ± 13.5 L/h | terminal half-life ([3]; mean±SD): 2.5 ± 0.5 h | Cmax ([3]; 40 mg/m^2): 1860 ± 660 nM | Cmax ([3]; 56 mg/m^2): 3170 ± 1310 nM | 17-AAG AUCobs ([4]; IP 40 mg/kg, vehicle PMSE): 1596 µg·min/mL | 17-AAG Cmax ([4]; IP 40 mg/kg, vehicle PMSE): 11800 ng/mL | 17-AG AUCobs ([4]; IP 40 mg/kg, vehicle PMSE): 655 µg·min/mL | 17-AG Cmax ([4]; IP 40 mg/kg, vehicle PMSE): 5800 ng/mL | % F ([4]; IP 40 mg/kg, vehicle PMSE, relative to IV 40 mg/kg): 91% | Total Absorption ([4]; IP 40 mg/kg, vehicle PMSE, 17-AAG and 17-AG relative to IV dose): 96% | 17-AAG AUCobs ([4]; IV 40 mg/kg, vehicle PET): 1752 µg·min/mL | 17-AAG Cmax ([4]; IV 40 mg/kg, vehicle PET): 54500 ng/mL | 17-AG AUCobs ([4]; IV 40 mg/kg, vehicle PET): 595 µg·min/mL | 17-AG Cmax ([4]; IV 40 mg/kg, vehicle PET): 6200 ng/mL | 17-AAG AUCobs [4, 12]: 953 µg·min/mL | 17-AAG Cmax [4, 12]: 7500 ng/mL | 17-AG AUCobs ([4]; PO 40 mg/kg, lipid complex): 532 µg·min/mL | 17-AG Cmax ([4]; PO 40 mg/kg, lipid complex): 4500 ng/mL | solubility in SIF [5]: 88 µg/mL (≈ 150 µM) | oral bioavailability [6]: 24%
